Results taken from the supplement of paper PMC10307832.

Legend:
Test in all cases: relative viability (nuclei count vs DMSO), 5 days (fraction); higher = more cells survive
[1] = compound: CN(C)CC1=CC(=CC=C1)N=C(C2=CC=CC=C2)C3=C(NC4=C3C=CC(=C4)C(=O)N(C)C)O + CC1(C)CCC(c2ccc(Cl)cc2)=C(CN2CCN(c3ccc(C(=O)NS(=O)(=O)c4ccc(N[C@H](CCN5CCOCC5)CSc5ccccc5)c(S(=O)(=O)C(F)(F)F)c4)cc3)CC2)C1 [Navitoclax] (partner 0.5 µM)
Summary of the method: (§1)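 One day after seeding in 1536-well plates, lung cancer cell lines were dosed by pin tool. Dosing was either single-drug or a fixed anchor-drug dose plus five library-drug doses (not always all listed) in √10 steps. After 5 days, nuclei were stained in one fix-and-stain step and counted on 4× images, and relative viability is the nuclei count of treated wells over that of vehicle wells, given as the median of duplicate plates.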

[2] = compound: CN(C)CC1=CC(=CC=C1)N=C(C2=CC=CC=C2)C3=C(NC4=C3C=CC(=C4)C(=O)N(C)C)O + O=C(CCCCCCC(=O)Nc1ccccc1)NO [Vorinostat] (partner 1 µM)
Summary of the method: as §1

[3] = compound: CN(C)CC1=CC(=CC=C1)N=C(C2=CC=CC=C2)C3=C(NC4=C3C=CC(=C4)C(=O)N(C)C)O + Cc1nc(NC(=O)N2CCC[C@H]2C(N)=O)sc1-c1ccnc(C(C)(C)C(F)(F)F)c1 [Alpelisib] (partner 2 µM)
Summary of the method: as §1

[4] = compound: CN(C)CC1=CC(=CC=C1)N=C(C2=CC=CC=C2)C3=C(NC4=C3C=CC(=C4)C(=O)N(C)C)O + C[C@]1(O)C[C@@H](c2nc(-c3ccc4ccc(-c5ccccc5)nc4c3)c3c(N)nccn32)C1 [Linsitinib] (partner 1 µM)
Summary of the method: as §1

| Cell Line | relative viability ([1]; first compound 0.08 µM) | relative viability ([1]; first compound 0.253 µM) | relative viability ([1]; first compound 0.8 µM) | relative viability ([1]; first compound 2.53 µM) | relative viability ([1]; first compound 8 µM) | relative viability ([2]; first compound 0.08 µM) | relative viability ([2]; first compound 0.253 µM) | relative viability ([2]; first compound 0.8 µM) | relative viability ([2]; first compound 2.53 µM) | relative viability ([2]; first compound 8 µM) | relative viability ([3]; first compound 0.08 µM) | relative viability ([3]; first compound 0.253 µM) | relative viability ([3]; first compound 0.8 µM) | relative viability ([3]; first compound 2.53 µM) | relative viability ([3]; first compound 8 µM) | relative viability ([4]; first compound 0.08 µM) | relative viability ([4]; first compound 0.253 µM) | relative viability ([4]; first compound 0.8 µM) | relative viability ([4]; first compound 2.53 µM) | relative viability ([4]; first compound 8 µM) |
| --- | --- | --- | --- | --- | --- | --- | --- | --- | --- | --- | --- | --- | --- | --- | --- | --- | --- | --- | --- | --- |
| LK-2 | 1.06 | 0.784 | 0.897 | 0.789 | 0.761 | 0.352 | 0.28 | 0.272 | 0.331 | 0.262 | 1.2 | 0.924 | 0.897 | 0.928 | 0.881 | 0.546 | 0.517 | 0.514 | 0.723 | 0.222 |
| NCI-H838 | 1.22 | 1.16 | 1.2 | 1.07 | 0.985 | 0.722 | 0.726 | 0.716 | 0.703 | 0.597 | 1.06 | 0.956 | 0.977 | 0.883 | 0.934 | 1.05 | 0.96 | 0.981 | 0.88 | 0.826 |
| HCC-44 | 0.948 | 0.95 | 0.942 | 0.995 | 0.994 | 1.18 | 1.09 | 1.2 | 1.1 | 1.29 | 0.787 | 0.736 | 0.768 | 0.766 | 0.77 | 0.67 | 0.683 | 0.641 | 0.613 | 0.664 |
| LC-2-ad | 0.456 | 0.515 | 0.429 | 0.515 | 0.338 | 0.694 | 0.699 | 0.727 | 0.681 | 0.622 | 0.896 | 0.86 | 0.857 | 0.848 | 0.672 | 0.844 | 0.745 | 0.884 | 0.808 | 0.593 |
| NCI-H1755 | 1.02 | 1.01 | 0.998 | 0.972 | 0.961 | 0.739 | 0.768 | 0.717 | 0.715 | 0.766 | 0.903 | 0.91 | 0.916 | 0.867 | 0.853 | 0.986 | 1.01 | 0.926 | 0.998 | 0.973 |
| NCI-H1944 | 1.21 | 0.937 | 0.951 | 0.947 | 0.908 | 0.737 | 0.589 | 0.571 | 0.455 | 0.469 | 0.828 | 0.799 | 0.748 | 0.826 | 0.783 | 1.18 | 1.18 | 1.01 | 1.17 | 1.08 |
| CAL-12T | 1.11 | 1.32 | 1.21 | 0.963 | 1.25 | 0.989 | 0.715 | 0.808 | 0.93 | 0.82 | 1.19 | 1.29 | 1.18 | 1.11 | 1.15 | 0.779 | 0.838 | 0.799 | 0.771 | 0.841 |
| NCI-H661 | – | – | – | – | – | 0.901 | 0.756 | 0.769 | 0.751 | 0.748 | 0.67 | 0.635 | 0.37 | 0.685 | 0.614 | 0.623 | 0.549 | 0.529 | 0.574 | 0.455 |
| NCI-H1648 | – | – | – | – | – | 0.518 | 0.585 | – | 0.512 | 0.446 | – | – | – | – | – | – | – | – | – | – |
| NCI-H1792 | 0.606 | 0.594 | 0.573 | 0.61 | 0.662 | – | – | – | – | – | 0.689 | 0.588 | 0.669 | 0.644 | 0.555 | 0.548 | 0.493 | 0.5 | 0.372 | 0.424 |
| SW 900 | – | – | – | – | – | 0.56 | 0.495 | 0.452 | 0.606 | 0.606 | – | – | – | – | – | – | – | – | – | – |
| ABC-1 | – | – | – | – | – | 1.34 | 1.21 | 1.1 | 0.895 | 1.14 | 1.14 | 1.03 | 0.957 | 0.896 | 1.09 | 0.773 | 0.965 | 0.709 | 0.728 | 0.73 |
| NCI-H650 | – | – | – | – | – | 0.452 | 0.553 | 0.557 | 0.418 | 0.395 | 1.05 | 0.956 | 1.2 | 0.945 | 0.825 | 0.854 | 0.965 | 0.952 | 0.83 | 0.767 |
| NCI-H2170 | 0.64 | 0.583 | 0.307 | 0.565 | 0.36 | 0.93 | 0.884 | 0.693 | 0.829 | 0.643 | 0.809 | 0.827 | 0.514 | 0.714 | 0.578 | – | – | – | – | – |
| NCI-H522 | – | – | – | – | – | 0.986 | 0.984 | 0.89 | 0.977 | 0.843 | – | – | – | – | – | – | – | – | – | – |
| A549 | 1.23 | 1.24 | 1.19 | 1.2 | 1.2 | – | – | – | – | – | 0.77 | 0.921 | 0.883 | 0.711 | 0.592 | 0.595 | 0.575 | 0.518 | 0.544 | 0.475 |
| NCI-H358 | – | – | – | – | – | 0.73 | 0.629 | 0.585 | 0.582 | 0.482 | 0.743 | 0.814 | 0.766 | 0.718 | 0.606 | 0.779 | 0.715 | 0.673 | 0.621 | 0.464 |
| Calu-6 | 0.815 | 0.831 | 0.963 | 0.888 | 0.928 | – | – | – | – | – | 1.05 | 1.11 | 1.06 | 0.971 | 0.93 | 0.951 | 0.877 | 0.989 | 0.911 | 0.885 |
| NCI-H1650 | 1.23 | 1.16 | 1.3 | 1.15 | 1.08 | 0.619 | 0.698 | 0.444 | 0.546 | 0.652 | – | – | – | – | – | – | – | – | – | – |
| LCLC-103H | – | – | – | – | – | 0.815 | 0.801 | 0.782 | 0.793 | 0.57 | 0.987 | 0.923 | 0.938 | 0.876 | 0.98 | 1.15 | 1.11 | 0.941 | 0.904 | 0.908 |
| ChaGo-K-1 | 1.16 | 1.17 | 1.27 | – | 1 | 0.753 | 0.737 | 0.795 | 0.738 | 0.777 | – | – | – | – | – | – | – | – | – | – |
| NCI-H1703 | 1.07 | 1.17 | 1.1 | 0.717 | 0.222 | – | – | – | – | – | 0.354 | 0.282 | 0.41 | 0.22 | 0.184 | 0.625 | 0.781 | 0.701 | 0.61 | 0.192 |
